Measurements from paper PMC12421817, “c-di-GMP regulates bacterial NAD biosynthesis via targeting the transcriptional repressor NadR” (mBio, 2025).

Columns and labels:
[1] = target: T1, YcgR (Salmonella enterica, UniProt Q8ZP19); experiment: UV-crosslinking with biotinylated c-di-GMP (YcgR as positive-control protein); format: binding
T1 construct: His6-YcgR

[2] = target: T2, NadR (Salmonella enterica, UniProt P24518); experiment: ITC; also UV-crosslinking with unlabeled competitor, EMSA, enzyme activity stimulation; format: binding
T2 construct: N-terminal His6-tagged NadR
T2 sequence (P24518 1-410): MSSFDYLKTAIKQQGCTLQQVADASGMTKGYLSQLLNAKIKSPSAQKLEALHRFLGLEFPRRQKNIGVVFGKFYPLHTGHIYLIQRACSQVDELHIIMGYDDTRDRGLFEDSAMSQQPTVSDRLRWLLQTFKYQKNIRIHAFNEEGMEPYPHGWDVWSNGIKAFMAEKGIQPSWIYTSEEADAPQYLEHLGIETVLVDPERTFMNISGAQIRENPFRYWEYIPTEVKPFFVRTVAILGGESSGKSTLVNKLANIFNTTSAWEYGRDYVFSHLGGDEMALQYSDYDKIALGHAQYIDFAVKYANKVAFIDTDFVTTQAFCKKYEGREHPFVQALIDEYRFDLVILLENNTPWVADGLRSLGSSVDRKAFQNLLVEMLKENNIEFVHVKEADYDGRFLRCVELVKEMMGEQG

[3] = target: T3, NadR (Salmonella enterica serovar Typhimurium) (UniProt P24518); experiment: EMSA; conditions: EMSA: 50 ng DNA, 20 mM Tris pH 7.5, 100 mM NaCl, 10% glycerol, 4 mM MgCl2, 1% NP-40, 1 mM DTT, 25 uL, 20 min room temperature; 6% native PAGE, 0.5x TBE, SYBR …
T3 sequence: T2 sequence (P24518 1-410)

T1 sequence (Q8ZP19 whole entry): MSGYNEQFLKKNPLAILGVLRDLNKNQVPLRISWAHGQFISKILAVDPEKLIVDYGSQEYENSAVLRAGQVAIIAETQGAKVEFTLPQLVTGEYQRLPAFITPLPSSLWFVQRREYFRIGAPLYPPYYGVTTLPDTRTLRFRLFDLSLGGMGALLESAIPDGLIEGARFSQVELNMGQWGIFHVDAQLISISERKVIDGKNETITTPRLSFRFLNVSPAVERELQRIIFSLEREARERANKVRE

Row | Molecule | UV-crosslinking with biotinylated c-di-GMP (YcgR as positive-control protein) [1] | Kd [2] [µM] | binding [3]
1 | Nc1nc2c(ncn2[C@@H]2O[C@@H]3COP(=O)(O)O[C@H]4[C@@H](O)[C@H](n5cnc6c(=O)[nH]c(N)nc65)O[C@@H]4COP(=O)(O)O[C@H]3[C@H]2O)c(=O)[nH]1 [c-di-GMP] | YcgR could obviously bind biotinylated c-di-GMP, while InvF, which was used as a negative control, showed no biotin-binding signal | 0.16 ± 0.02 | 
2 | GCTCATCGTGGCTTCTCGTTTTACTGACTTAACGAAACAACCGAATGAAAGCGTAATAAACGCCACAATCGGTTAATTTGTTTTATATGCTAAACAAGATAGCTGATTCAATAAGGAAAGTCACAATAATTACGTAGCCCCGTATCTGATGGCGGCGTAACGTCTTATCTGGCCTACGTGAGCGGTGCCGTCTGTAGGCCTGAT (double strand) [nadA-pnuC promoter] |  |  | binds
3 | GGTTCTTGTTTAATTTACTAAACATGGTTGCGGCAGATTAGCACTATATGGCGCTAAAAAGCACGTTATGATTTCGCTGGTGTTGTGCTTATTAAACATAAAATAAAAATACGGCGAGAGATAAACGGCAAAAAATATTTTATAGGGCAGGGTGTTAGCGTCGGATTTTGTAGTGAAATAAAGATGCTGTTAGGTTACTC (double strand) [nadB promoter] |  |  | binds
